Test: Human HepG2 cell viability assay in 384 well format
Format: toxicity, cell-based
Parameters: dose 125 nL, time 70.5 hour; cytotoxicity at 70.5 h: concentration not given beside the values
Details: HepG2 cells, read-out: Inhibition

Row | SMILES | cytotoxicity at 70.5 h [%]
1 | O=C(C1CCCC1)N1CCCC([C@@H]2C[C@H](C(F)F)n3ncnc3N2)C1 (some centres not stated) | -6.92
2 | COc1ccccc1CC(=O)N1CCN(Cc2ccco2)C[C@@H]1C | -2.18
3 | Cn1cc(CN2CCC(c3cc(COc4ccc(Cl)cc4)[nH]n3)C2)cn1 (configuration not stated) | 0.81
4 | CO[C@H]1CN(Cc2nc3ccccc3n2C)CC[C@@]12CCCO2 | -4.2
5 | CNC(=O)CCc1cc(C)nc(C2CCN(C3CCCCC3)CC2)c1 | -0.853
6 | CNC(=O)CCc1cc(C)nc(C2CCN(C(=O)CN(C)C)CC2)c1 | -3.32
7 | O=C(c1cnc(O)c(Cl)c1)N1CCCC(c2nccs2)C1 (configuration not stated) | 6.3
8 | Cc1ncccc1C(=O)N1CCC2(CCc3ccccc3C(=O)N2)C1 (configuration not stated) | 15.5
9 | COc1ccc2c(c1)CC(C1CCOCC1)N(C(=O)c1ccn(C)n1)C2 (configuration not stated) | 2.06
10 | CC(C)c1cc(C(=O)N2CCC3(CCc4ccccc4C(=O)N3)C2)no1 (configuration not stated) | 8.79
11 | Cc1ccc(-c2nnc(C3CCCN3S(=O)(=O)c3cnn(C)c3C)o2)s1 (configuration not stated) | 2.03
12 | CN(C)C(=O)c1c[nH]nc1-c1ccc(CNC(=O)c2cnccn2)cc1 | -1.73
13 | CC(C)c1nccn1CCC(=O)N1CCCCC1c1ccn[nH]1 (configuration not stated) | 3.76
14 | COc1ccc(CN(C)CC2(O)CCNC2)cc1 (configuration not stated) | 0.252
15 | O=C(CC1CCCC1)N1CCCC1c1ccc(CN2CCOCC2)cn1 (configuration not stated) | -0.855
16 | CCc1nccn1CCC(=O)N1CCCC1c1cncc(NC)n1 (configuration not stated) | 5.43
17 | Cc1ncsc1C(=O)NCc1ccc(-c2n[nH]cc2C(=O)N(C)C)cc1 | -1.47
18 | Nc1nc(N)c2c(n1)OC1(CCN(C(=O)CC3CCCCN3)CC1)C2 (configuration not stated) | -5.34
19 | Cc1cc(N2CCCC(c3nccnc3N(C)C)C2)ncn1 (configuration not stated) | -2.83

Row | SMILES | cytotoxicity at 70.5 h [%]
20 | Cc1nc(Nc2ncccn2)cc(C2CCCN2C2CCOCC2)n1 (configuration not stated) | 1.98
21 | CN(C)C(=O)C1CN(Cc2ccccc2)CCN(S(C)(=O)=O)C1 (configuration not stated) | -6.37
22 | CNc1cc(C2CCCN2Cc2ccccc2C(=O)O)ccn1 (configuration not stated) | -9.85
23 | CN(C)c1cncc(C2CCN(C(=O)CO)CC2)n1 | -22.6
24 | Cc1nc(Nc2nccs2)cc(C2CCCN2C2CCOCC2)n1 (configuration not stated) | -8.39
25 | Cc1ccc(S(=O)(=O)N2C[C@H]3C[C@H](NC(=O)c4ccnn4C)[C@H]3C2)cc1 | 46.1
26 | CN1CCCC(Cc2cncc(C(=O)NCC3CC3)c2)C1 (configuration not stated) | -1.13
27 | CC(=O)N1CCN(C)CC(COCc2ccccc2)C1 (configuration not stated) | -3.41
28 | CC(C)C1=NOC2(CCN(Cc3c[nH]c4ccccc34)CC2)C1 | 4.04
29 | Cc1cccc(N2Cc3c(NC4CCCC4)ncnc3N(C)CC2=O)c1 | -4.33
30 | Cc1ccc2nc(C3CCCN(Cc4ccccc4)C3)nc(O)c2c1 (configuration not stated) | 0.432
31 | O=C1Nc2ccccc2CNC12CCN(CC1CCNC1)CC2 (configuration not stated) | -11
32 | O=C1Nc2ccccc2CNC12CCN(CC1CCCC1)CC2 | -7.54
33 | CC(=O)N1CCC2(CC1)CC(C(C)C)=NO2 | -9.06
34 | COc1ccccc1-c1cc(C(=O)N(C)C)c2cnn(C)c2n1 | -11.2
35 | NCCCC(=O)N1CCC2(CC1)CN(C(=O)c1ccc(Cl)cc1)CCO2 | -12.4
36 | O=C(C1CCCC1)N1CC2(CCN(C3COC3)C2)OCc2ccccc21 (configuration not stated) | -17.3
37 | O=C(C1CCCC1)N1CC2(CCN(C3COC3)CC2)Cc2ccccc21 | -21
38 | O=C(NC1CCCCC1)N1CCn2c(nnc2C2CCCN2)C1 (configuration not stated) | -12.5

Row | SMILES | cytotoxicity at 70.5 h [%]
39 | Cc1cc(C(=O)NCc2ccc(F)cc2)c2c(C3CCCN3)noc2n1 (configuration not stated) | -6.52
40 | Cc1cc(C(=O)NCC(C)C)c2c(C3CCCN3)noc2n1 (configuration not stated) | -5.52
41 | O=C(C1CCCC1)N1CCn2c(nnc2C2CCCNC2)C1 (configuration not stated) | -3.22
42 | O=C(c1ccc(Cl)cc1)N1CCn2c(nn(-c3ccc(Cl)cc3)c2=O)C1 | -1.63
43 | O=C(c1ccc(Cl)cc1)N1CCn2c(nn(-c3ccncc3)c2=O)C1 | -8.19
44 | O=C(c1ccc(Cl)cc1)N1CC2(CCNC2)OCc2ccccc21 (configuration not stated) | -5.43
45 | O=C(NC1CC1)C1CCc2nnc(-c3cccc(C(F)(F)F)c3)n21 (configuration not stated) | -11.5
46 | O=C1CC2(CCN(C(=O)c3ccccc3)C2)Nc2ccccc2N1 (configuration not stated) | -17.8
47 | COc1ccccc1-c1nc(C(=O)N(C)C)n2ccncc12 | -8.75
48 | O=C1NC2(Cc3ccccc31)CN(CC1CCNC1)C2 (configuration not stated) | -11.5
49 | O=C1NC2(Cc3ccccc31)CN(CC1CCCC1)C2 | -11.8
50 | O=C1NC2(Cc3ccccc31)CN(CC1CCNCC1)C2 | 12.6
51 | CC(C)CNC(=O)c1cc(C2CC2)nc2c1c(C1CCCN1)nn2C (configuration not stated) | 13.8
52 | CC(=O)N1CC2(CCCCN2Cc2ccc(Cl)cc2)Cc2ccccc21 (configuration not stated) | 5.47
53 | CC(=O)N1CC2(CCCN(Cc3ccc(Cl)cc3)C2)Cc2ccccc21 (configuration not stated) | 5.61
54 | CC(=O)N1CC2(CCN(Cc3ccc(Cl)cc3)CC2)Cc2ccccc21 | 9.92
55 | O=C(NCc1cccnc1)c1ccc2nccn2c1 | 1.82
56 | O=S1(=O)NC2(CCCN(Cc3ccc(Cl)cc3)C2)COc2ccccc21 (configuration not stated) | 22.5
57 | O=S1(=O)NC2(CCCN(Cc3ccc(F)cc3)C2)COc2ccccc21 (configuration not stated) | -3.88

Source: ChEMBL document CHEMBL3507680, “University of Dundee, Gates Library screen for HepG2 cell viability”
